From ChEMBL document CHEMBL1909046, “DrugMatrix in vitro pharmacology data”

Tests used:
[1] = DRUGMATRIX: Phorbol Ester radioligand binding (ligand: [3H] PDBu); type: cell membranes, Mus musculus, ICR, Brain, Membrane; details: Not Active = under 50% inhibition at 10 µM
[2] = DRUGMATRIX: Phosphodiesterase PDE4 enzyme inhibition (substrate: [3H]cAMP + cAMP); details: u-937; Not Active = under 50% inhibition at 10 µM
[3] = DRUGMATRIX: Phosphodiesterase PDE3 enzyme inhibition (substrate: [3H]cAMP + cAMP); type: tissue-based, Homo sapiens; details: platelet; Not Active = under 50% inhibition at 10 µM
[4] = biological target: T1, Neuropeptide Y receptor type 1 (Homo sapiens, UniProt P25929); type: cell membranes, Membrane; details: sk-n-mc; further: in other assays of this panel Not Active means under 50% inhibition at 10 µM
T1 sequence (P25929 whole entry): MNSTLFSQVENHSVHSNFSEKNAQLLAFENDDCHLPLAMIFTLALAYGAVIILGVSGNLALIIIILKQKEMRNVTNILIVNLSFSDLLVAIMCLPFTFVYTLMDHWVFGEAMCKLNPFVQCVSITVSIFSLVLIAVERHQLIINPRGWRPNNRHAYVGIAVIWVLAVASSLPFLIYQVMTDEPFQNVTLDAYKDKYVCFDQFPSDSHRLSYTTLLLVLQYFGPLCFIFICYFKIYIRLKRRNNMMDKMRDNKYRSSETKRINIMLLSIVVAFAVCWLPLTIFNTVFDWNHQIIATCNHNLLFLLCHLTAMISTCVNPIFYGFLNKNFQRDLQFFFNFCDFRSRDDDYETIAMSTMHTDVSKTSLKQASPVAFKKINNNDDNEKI

[5] = DRUGMATRIX: Sodium/nucleoside co-transporter radioligand binding (ligand: nitrobenzylthioinosine); type: cell membranes, Cavia porcellus, Dunkin-Hartley, Cerebral cortex, Membrane; details: Not Active = under 50% inhibition at 10 µM
[6] = DRUGMATRIX: Calcium Channel Type L, Dihydropyridine radioligand binding (ligand: [3H] Nitrendipine); type: cell membranes, Rattus norvegicus, Wistar, Cerebral cortex, Membrane; details: Not Active = under 50% inhibition at 10 µM
[7] = biological target: T2, Polyunsaturated fatty acid lipoxygenase ALOX15 (Oryctolagus cuniculus, UniProt P12530); assay: biochemical; type: tissue-based, Reticulocytes;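 further: inhibition of 15-lipoxygenase enzyme activity measured with linoleic acid as the substrate; in other assays of this panel Not Active means under 50% inhibition at 10 µM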
T2 sequence (P12530 whole entry): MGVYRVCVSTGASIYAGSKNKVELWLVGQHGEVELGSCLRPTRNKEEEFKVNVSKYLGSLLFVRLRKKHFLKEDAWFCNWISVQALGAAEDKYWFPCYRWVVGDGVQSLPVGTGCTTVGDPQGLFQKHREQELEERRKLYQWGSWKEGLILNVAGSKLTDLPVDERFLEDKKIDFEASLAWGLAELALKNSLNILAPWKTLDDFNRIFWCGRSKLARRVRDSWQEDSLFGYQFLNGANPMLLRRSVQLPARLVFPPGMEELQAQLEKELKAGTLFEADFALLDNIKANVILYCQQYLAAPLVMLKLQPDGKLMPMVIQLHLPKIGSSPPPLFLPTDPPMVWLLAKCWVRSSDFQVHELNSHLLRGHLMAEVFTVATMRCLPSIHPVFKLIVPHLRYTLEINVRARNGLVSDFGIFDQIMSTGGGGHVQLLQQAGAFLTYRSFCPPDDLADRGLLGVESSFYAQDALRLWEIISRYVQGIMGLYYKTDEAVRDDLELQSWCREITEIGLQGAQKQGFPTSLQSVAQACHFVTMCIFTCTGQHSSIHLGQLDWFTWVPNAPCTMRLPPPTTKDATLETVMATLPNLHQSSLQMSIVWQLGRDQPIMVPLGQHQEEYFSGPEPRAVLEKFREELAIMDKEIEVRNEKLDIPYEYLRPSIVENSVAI

| Compound | IC50 [1] | Ki [1] | IC50 [2] | Ki [2] | IC50 [3] | Ki [3] | IC50 [4] | IC50 [5] | Ki [5] | IC50 [6] | Ki [6] | IC50 ([7]; reticulocytes) | IC50 ([5]; read-out: IC50) | Ki ([5]; read-out: Ki) | IC50 ([7]; read-out: IC50) | Ki [4] | Ki ([7]; reticulocytes) |
| --- | --- | --- | --- | --- | --- | --- | --- | --- | --- | --- | --- | --- | --- | --- | --- | --- | --- |
| CSc1ccc(/C=C2/C(C)=C(CC(=O)O)c3cc(F)ccc32)cc1 [SULINDAC SULFIDE] | Not Active | Not Active | Not Active | Not Active | Not Active | Not Active | Not Active | Not Active | Not Active | Not Active | Not Active | Not Active |  |  |  |  |  |
| Nc1c2c(nc3ccccc13)CCCC2 [TACRINE] | Not Active | Not Active | Not Active | Not Active | Not Active | Not Active | Not Active | Not Active | Not Active | Not Active | Not Active | Not Active |  |  |  |  |  |
| CC(C)N1CCN(c2ccc(OCC3COC(Cn4cncn4)(c4ccc(Cl)cc4Cl)O3)cc2)CC1 (stereo not given) [TERCONAZOLE] | Not Active | Not Active | Not Active | Not Active | Not Active | Not Active | Not Active |  |  | Not Active | Not Active |  | 12.4 µM | 4.24 µM | 2.45 µM |  |  |
| Nc1nc2nc[nH]c2c(=S)[nH]1 [THIOGUANINE] | Not Active | Not Active | Not Active | Not Active | Not Active | Not Active | Not Active | Not Active | Not Active | Not Active | Not Active |  |  |  | 16.2 µM |  |  |
| Cc1cccc(N(C)C(=S)Oc2ccc3ccccc3c2)c1 [TOLNAFTATE] | Not Active | Not Active | Not Active | Not Active | Not Active | Not Active | Not Active | Not Active | Not Active | Not Active | Not Active | Not Active |  |  |  |  |  |
| NC[C@H]1CC[C@H](C(=O)O)CC1 [TRANEXAMIC ACID] | Not Active | Not Active | Not Active | Not Active | Not Active | Not Active | Not Active | Not Active | Not Active | Not Active | Not Active | Not Active |  |  |  |  |  |
| CC1(C)O[C@@H]2C[C@H]3[C@@H]4CCC5=CC(=O)C=C[C@]5(C)[C@@]4(F)[C@@H](O)C[C@]3(C)[C@]2(C(=O)CO)O1 [TRIAMCINOLONE ACETONIDE] | Not Active | Not Active | Not Active | Not Active | Not Active | Not Active | Not Active | Not Active | Not Active | Not Active | Not Active | Not Active |  |  |  |  |  |
| NS(=O)(=O)c1cc2c(cc1Cl)NC(C(Cl)Cl)NS2(=O)=O (stereo not given) [TRICHLORMETHIAZIDE] | Not Active | Not Active | Not Active | Not Active | Not Active | Not Active | Not Active | Not Active | Not Active | Not Active | Not Active | Not Active |  |  |  |  |  |
| Cc1c(C)c2c(c(C)c1O)CCC(C)(COc1ccc(CC3SC(=O)NC3=O)cc1)O2 (stereo not given) [TROGLITAZONE] | Not Active | Not Active | Not Active | Not Active | Not Active | Not Active | Not Active | Not Active | Not Active | Not Active | Not Active | Not Active |  |  |  |  |  |
| N[C@@H]1[C@H]2CN(c3nc4c(cc3F)c(=O)c(C(=O)O)cn4-c3ccc(F)cc3F)C[C@@H]12 [TROVAFLOXACIN] | Not Active | Not Active | Not Active | Not Active | Not Active | Not Active | Not Active | Not Active | Not Active | Not Active | Not Active | Not Active |  |  |  |  |  |
| N#CC(C#N)=Cc1ccc(O)c(O)c1 [TYRPHOSTIN 23] | Not Active | Not Active | Not Active | Not Active | Not Active | Not Active | Not Active | Not Active | Not Active | Not Active | Not Active | Not Active |  |  |  |  |  |
| CC[C@]1(O)C[C@H]2CN(CCc3c([nH]c4ccccc34)[C@@](C(=O)OC)(c3cc4c(cc3OC)N(C=O)[C@H]3[C@@](O)(C(=O)OC)[C@H](OC(C)=O)[C@]5(CC)C=CCN6CC[C@]43[C@@H]65)C2)C1 [VINCRISTINE] | Not Active | Not Active | Not Active | Not Active | Not Active | Not Active | Not Active | Not Active | Not Active | Not Active | Not Active | Not Active |  |  |  |  |  |
| CCCOc1ccccc1-c1nc2nn[nH]c2c(=O)[nH]1 [ZAPRINAST] | Not Active | Not Active | Not Active | Not Active | Not Active | Not Active | Not Active | Not Active | Not Active | Not Active | Not Active | Not Active |  |  |  |  |  |
| SODIUM NITROPRUSSIDE | Not Active | Not Active | Not Active | Not Active | Not Active | Not Active | Not Active | Not Active | Not Active | Not Active | Not Active | Not Active |  |  |  | Not Active | Not Active |
